Experimental data published in patent publication US11752188B2, “Compositions and methods for nutritional supplements” (DailyColors Health Inc., priority 2020, dated 2023).
Read-outs that look alike come from different tables or passages of the source. One block for each molecule: values may come before it.

Legend:
Format in all cases: biochemical
recombinant human NAMPT = target: T1, recombinant human NAMPT (Homo sapiens, UniProt P43490); test: NAMPT in vitro enzymatic fluorescence assay
T1 construct: purchased 91004
Description: Assay Conditions: The control compound is dissolved in DMSO. The dilution of the compounds was first performed in 100% DMSO with the highest concentration at 0.01 mM. […] For NAMPT, the compounds (see 2.2) were preincubated with NAMPT enzyme (see 2.3.1) in for 30 minutes. […] The final concentration of DMSO in all reactions was 1%. Fluorescence intensity was measured at an excitation of 340 nm and an emission of 460 nm using a Tecan Infinite M1000 microplate reader.
Data Analysis: NAMPT activity assays were performed in duplicates at each concentration. […] In the absence of the compound, the fluorescent intensity (Ft) in each data set was defined as 100% activity. In the absence of NAMPT, the fluorescent intensity (Fb) in each data set was defined as 0% activity. The percent activity in the presence of each compound was calculated according to the following equation: % activity=(F−Fb)/(Ft−Fb), where F=the fluorescent intensity in the presence of the compound. The values of percentage activity were plotted on a bar graph.

recombinant human JAK1 = recombinant human JAK1 (Homo sapiens, UniProt P23458); test: JAK1 Kinase-Glo Plus luminescence kinase assay
recombinant human JAK2 = recombinant human JAK2 (Homo sapiens, UniProt O60674); test: JAK2 Kinase-Glo Plus luminescence kinase assay
recombinant human JAK3 = target: T2, recombinant human JAK3 (Homo sapiens, UniProt P52333); test: JAK3 Kinase-Glo Plus luminescence kinase assay
T2 sequence (P52333 1-1124): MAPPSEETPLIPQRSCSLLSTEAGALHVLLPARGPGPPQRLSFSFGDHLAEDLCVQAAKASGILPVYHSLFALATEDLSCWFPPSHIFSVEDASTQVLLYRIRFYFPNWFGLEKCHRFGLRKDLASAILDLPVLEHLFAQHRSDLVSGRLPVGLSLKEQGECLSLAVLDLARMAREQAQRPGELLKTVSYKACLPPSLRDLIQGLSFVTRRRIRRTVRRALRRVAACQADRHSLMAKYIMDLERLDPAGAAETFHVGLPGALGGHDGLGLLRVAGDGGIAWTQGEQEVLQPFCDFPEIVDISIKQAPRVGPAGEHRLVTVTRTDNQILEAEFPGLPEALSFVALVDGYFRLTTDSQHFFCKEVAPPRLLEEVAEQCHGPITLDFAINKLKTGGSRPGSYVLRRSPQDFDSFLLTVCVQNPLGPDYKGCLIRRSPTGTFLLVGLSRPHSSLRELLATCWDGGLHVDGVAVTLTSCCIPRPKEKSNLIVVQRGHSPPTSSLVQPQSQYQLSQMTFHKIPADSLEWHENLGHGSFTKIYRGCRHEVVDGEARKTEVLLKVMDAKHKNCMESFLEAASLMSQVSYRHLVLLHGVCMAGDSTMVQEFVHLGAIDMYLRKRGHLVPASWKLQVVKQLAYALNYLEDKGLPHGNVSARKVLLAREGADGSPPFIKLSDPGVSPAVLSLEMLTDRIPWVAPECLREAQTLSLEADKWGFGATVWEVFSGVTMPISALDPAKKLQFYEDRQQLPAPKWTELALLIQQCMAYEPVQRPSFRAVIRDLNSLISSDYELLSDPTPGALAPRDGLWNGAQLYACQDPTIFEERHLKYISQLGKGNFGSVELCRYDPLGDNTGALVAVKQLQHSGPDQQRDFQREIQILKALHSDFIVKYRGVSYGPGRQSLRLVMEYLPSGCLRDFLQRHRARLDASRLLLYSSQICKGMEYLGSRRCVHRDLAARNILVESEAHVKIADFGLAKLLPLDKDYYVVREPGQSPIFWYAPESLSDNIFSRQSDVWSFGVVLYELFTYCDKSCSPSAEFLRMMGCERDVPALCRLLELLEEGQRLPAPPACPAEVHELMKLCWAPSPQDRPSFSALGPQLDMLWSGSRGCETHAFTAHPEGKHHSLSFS

Sequence of recombinant human JAK1 (P23458 whole entry): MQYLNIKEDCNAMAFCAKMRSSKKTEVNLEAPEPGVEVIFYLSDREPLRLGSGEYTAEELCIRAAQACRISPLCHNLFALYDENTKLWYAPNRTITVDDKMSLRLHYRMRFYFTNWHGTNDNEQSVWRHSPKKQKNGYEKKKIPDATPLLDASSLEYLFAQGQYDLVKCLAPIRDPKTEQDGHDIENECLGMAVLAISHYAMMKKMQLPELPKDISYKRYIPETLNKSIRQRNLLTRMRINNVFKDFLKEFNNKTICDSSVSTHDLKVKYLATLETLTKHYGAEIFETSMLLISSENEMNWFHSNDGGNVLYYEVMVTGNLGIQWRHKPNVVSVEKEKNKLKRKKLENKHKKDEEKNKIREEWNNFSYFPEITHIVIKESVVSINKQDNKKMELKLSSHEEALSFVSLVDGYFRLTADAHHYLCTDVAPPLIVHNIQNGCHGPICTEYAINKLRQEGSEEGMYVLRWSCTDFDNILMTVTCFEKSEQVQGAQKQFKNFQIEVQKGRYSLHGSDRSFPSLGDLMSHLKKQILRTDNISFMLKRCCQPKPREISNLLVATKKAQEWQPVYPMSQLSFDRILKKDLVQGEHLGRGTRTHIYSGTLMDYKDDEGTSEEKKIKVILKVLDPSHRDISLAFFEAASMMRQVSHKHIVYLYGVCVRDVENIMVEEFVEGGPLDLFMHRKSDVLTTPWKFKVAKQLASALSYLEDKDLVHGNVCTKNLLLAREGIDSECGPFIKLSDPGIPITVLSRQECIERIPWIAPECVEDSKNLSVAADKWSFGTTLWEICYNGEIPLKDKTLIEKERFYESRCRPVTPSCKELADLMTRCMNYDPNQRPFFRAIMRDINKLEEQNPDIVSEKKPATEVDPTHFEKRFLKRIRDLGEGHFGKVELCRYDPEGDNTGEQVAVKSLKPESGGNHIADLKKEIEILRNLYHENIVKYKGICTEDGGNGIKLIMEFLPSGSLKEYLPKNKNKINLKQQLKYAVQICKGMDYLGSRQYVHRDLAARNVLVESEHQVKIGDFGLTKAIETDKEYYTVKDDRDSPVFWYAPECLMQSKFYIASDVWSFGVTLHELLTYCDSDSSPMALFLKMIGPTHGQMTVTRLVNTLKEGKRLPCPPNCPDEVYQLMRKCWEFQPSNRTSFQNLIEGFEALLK
T1 sequence (P43490 whole entry): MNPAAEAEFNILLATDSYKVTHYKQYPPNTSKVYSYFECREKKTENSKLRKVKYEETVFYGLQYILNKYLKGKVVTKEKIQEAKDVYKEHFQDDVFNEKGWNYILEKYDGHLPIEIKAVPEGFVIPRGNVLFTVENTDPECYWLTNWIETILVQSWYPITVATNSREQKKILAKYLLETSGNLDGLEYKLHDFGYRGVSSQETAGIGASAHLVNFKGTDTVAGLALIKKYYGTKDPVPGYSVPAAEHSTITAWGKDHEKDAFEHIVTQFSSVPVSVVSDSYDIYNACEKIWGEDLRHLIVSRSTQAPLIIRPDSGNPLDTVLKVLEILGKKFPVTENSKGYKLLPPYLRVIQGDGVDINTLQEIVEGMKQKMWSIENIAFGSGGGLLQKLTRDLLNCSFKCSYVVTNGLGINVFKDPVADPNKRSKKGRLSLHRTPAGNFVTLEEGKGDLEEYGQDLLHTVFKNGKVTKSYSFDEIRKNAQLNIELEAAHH
Sequence of recombinant human JAK2 (O60674 whole entry): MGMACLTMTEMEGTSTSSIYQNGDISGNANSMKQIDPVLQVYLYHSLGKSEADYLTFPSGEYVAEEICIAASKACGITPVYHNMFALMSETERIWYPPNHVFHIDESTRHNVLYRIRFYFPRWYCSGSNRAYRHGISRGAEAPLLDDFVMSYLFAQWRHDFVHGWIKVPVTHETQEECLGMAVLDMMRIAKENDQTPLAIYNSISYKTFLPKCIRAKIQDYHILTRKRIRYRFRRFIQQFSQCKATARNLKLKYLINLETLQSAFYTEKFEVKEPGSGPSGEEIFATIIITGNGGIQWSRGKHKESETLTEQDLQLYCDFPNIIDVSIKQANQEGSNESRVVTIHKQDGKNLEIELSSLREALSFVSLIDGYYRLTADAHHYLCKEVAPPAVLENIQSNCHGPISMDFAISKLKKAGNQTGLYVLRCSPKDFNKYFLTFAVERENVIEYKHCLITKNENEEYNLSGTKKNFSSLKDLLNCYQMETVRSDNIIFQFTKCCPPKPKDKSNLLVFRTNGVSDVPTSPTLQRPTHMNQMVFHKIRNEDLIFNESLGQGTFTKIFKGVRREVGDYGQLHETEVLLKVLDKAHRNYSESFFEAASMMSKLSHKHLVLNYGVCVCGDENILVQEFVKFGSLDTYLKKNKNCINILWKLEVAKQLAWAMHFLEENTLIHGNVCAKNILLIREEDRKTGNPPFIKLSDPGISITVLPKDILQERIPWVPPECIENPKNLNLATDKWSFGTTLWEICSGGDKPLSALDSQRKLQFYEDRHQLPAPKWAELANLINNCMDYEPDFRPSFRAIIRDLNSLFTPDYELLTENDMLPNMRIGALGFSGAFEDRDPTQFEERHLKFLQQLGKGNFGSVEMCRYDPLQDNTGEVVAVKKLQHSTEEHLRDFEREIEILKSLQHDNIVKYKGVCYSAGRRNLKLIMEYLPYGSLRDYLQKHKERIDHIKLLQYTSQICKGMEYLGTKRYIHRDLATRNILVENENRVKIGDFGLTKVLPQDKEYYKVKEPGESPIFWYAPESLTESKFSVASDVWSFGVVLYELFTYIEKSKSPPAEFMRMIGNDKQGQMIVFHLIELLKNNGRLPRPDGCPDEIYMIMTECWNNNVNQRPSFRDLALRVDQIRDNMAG

inhibition at 0.001 µM (recombinant human NAMPT): 4% | inhibition at 0.01 µM (recombinant human NAMPT): 57% | inhibition at 0.1 µM (recombinant human NAMPT): 100% | Background (Fluorescence count) Repeat 1 (recombinant human NAMPT; 0.001 μM): 450 | Background (Fluorescence count) Repeat 2 (recombinant human NAMPT; 0.001 μM): 442 | NAMPT Activity (Fluorescence Intensity) Repeat 1 (recombinant human NAMPT; 0.001 μM): 3328 | NAMPT Activity (Fluorescence Intensity) Repeat 2 (recombinant human NAMPT; 0.001 μM): 3345 | Background (Fluorescence count) Repeat 1 (recombinant human NAMPT; 0.01 μM): 454 | Background (Fluorescence count) Repeat 2 (recombinant human NAMPT; 0.01 μM): 461 | NAMPT Activity (Fluorescence Intensity) Repeat 1 (recombinant human NAMPT; 0.01 μM): 1750 | NAMPT Activity (Fluorescence Intensity) Repeat 2 (recombinant human NAMPT; 0.01 μM): 1766 | Background (Fluorescence count) Repeat 1 (recombinant human NAMPT; 0.1 μM): 440 | Background (Fluorescence count) Repeat 2 (recombinant human NAMPT; 0.1 μM): 442 | NAMPT Activity (Fluorescence Intensity) Repeat 1 (recombinant human NAMPT; 0.1 μM): 463 | NAMPT Activity (Fluorescence Intensity) Repeat 2 (recombinant human NAMPT; 0.1 μM): 468 | activity at 0.001 µM (recombinant human NAMPT; read-out: % Activity Repeat 1): 95% | activity at 0.01 µM (recombinant human NAMPT; read-out: % Activity Repeat 1): 42% | activity at 0.1 µM (recombinant human NAMPT; read-out: % Activity Repeat 1): 0% | activity at 0.001 µM (recombinant human NAMPT; read-out: % Activity Repeat 2): 96% | activity at 0.01 µM (recombinant human NAMPT; read-out: % Activity Repeat 2): 43% | activity at 0.1 µM (recombinant human NAMPT; read-out: % Activity Repeat 2): 0%
SMILES: O=C(/C=C/c1cccnc1)NCCCCC1CCN(C(=O)c2ccccc2)CC1 [FK-866]

SMILES: CN[C@@H]1C[C@H]2O[C@@](C)([C@@H]1OC)n1c3ccccc3c3c4c(c5c6ccccc6n2c5c31)C(=O)NC4 [Staurosporine]
inhibition at 0.001 µM (recombinant human JAK1): 7% | inhibition at 0.01 µM (recombinant human JAK1): 72% | Kinase Activity Luminescence Repeat1 (recombinant human JAK1; 0.001 μM, TABLE 68): 25176 | Kinase Activity Luminescence Repeat2 (recombinant human JAK1; 0.001 μM, TABLE 68): 27054 | Kinase Activity Luminescence Repeat1 (recombinant human JAK1; 1 nM, TABLE 71): 21164 | Kinase Activity Luminescence Repeat2 (recombinant human JAK1; 1 nM, TABLE 71): 24810 | Kinase Activity Luminescence Repeat1 (recombinant human JAK1; 0.01 μM, TABLE 68): 37642 | Kinase Activity Luminescence Repeat2 (recombinant human JAK1; 0.01 μM, TABLE 68): 35358 | Kinase Activity Luminescence Repeat1 (recombinant human JAK1; 10 nM, TABLE 71): 28640 | Kinase Activity Luminescence Repeat2 (recombinant human JAK1; 10 nM, TABLE 71): 32000 | Kinase Activity Luminescence Repeat1 (recombinant human JAK1; 0.1 μM, TABLE 68): 40161 | Kinase Activity Luminescence Repeat2 (recombinant human JAK1; 0.1 μM, TABLE 68): 40781 | Kinase Activity Luminescence Repeat1 (recombinant human JAK1; 100 nM, TABLE 71): 36908 | Kinase Activity Luminescence Repeat2 (recombinant human JAK1; 100 nM, TABLE 71): 39509 | activity at 0.001 µM (recombinant human JAK1; read-out: % Activity Repeat1, 0.001 μM, TABLE 68): 99% | activity at 0.001 µM (recombinant human JAK1; read-out: % Activity Repeat1, 1 nM, TABLE 71): 88% | activity at 0.01 µM (recombinant human JAK1; read-out: % Activity Repeat1, 10 nM, TABLE 71): 52% | activity at 0.1 µM (recombinant human JAK1; read-out: % Activity Repeat1, 0.1 μM, TABLE 68): 5% | activity at 0.1 µM (recombinant human JAK1; read-out: % Activity Repeat1, 100 nM, TABLE 71): 11% | activity at 0.001 µM (recombinant human JAK1; read-out: % Activity Repeat2, 0.001 μM, TABLE 68): 87% | activity at 0.001 µM (recombinant human JAK1; read-out: % Activity Repeat2, 1 nM, TABLE 71): 70% | activity at 0.1 µM (recombinant human JAK1; read-out: % Activity Repeat2, 0.1 μM, TABLE 68): 1% | activity at 0.1 µM (recombinant human JAK1; read-out: % Activity Repeat2, 100 nM, TABLE 71): 0% | inhibition at 0.01 µM (recombinant human JAK1; read-out: % Inhibition JAK1): 56% | inhibition at 0.1 µM (recombinant human JAK1; read-out: % Inhibition JAK1): 94% | Kinase Activity Luminescence Repeat1 (recombinant human JAK2; 0.001 μM, TABLE 69): 19100 | Kinase Activity Luminescence Repeat2 (recombinant human JAK2; 0.001 μM, TABLE 69): 20922 | inhibition at 0.001 µM (recombinant human JAK2; 0.001 μM, TABLE 69): 0% | activity at 0.001 µM (recombinant human JAK2; 0.001 μM, TABLE 69, read-out: % Activity Repeat1): 105% | activity at 0.001 µM (recombinant human JAK2; 0.001 μM, TABLE 69, read-out: % Activity Repeat2): 96% | Kinase Activity Luminescence Repeat1 (recombinant human JAK2; 1 nM, TABLE 72): 9482 | Kinase Activity Luminescence Repeat2 (recombinant human JAK2; 1 nM, TABLE 72): 10430 | activity at 0.001 µM (recombinant human JAK2; 1 nM, TABLE 72, read-out: % Activity Repeat1): 89% | activity at 0.001 µM (recombinant human JAK2; 1 nM, TABLE 72, read-out: % Activity Repeat2): 86% | Kinase Activity Luminescence Repeat1 (recombinant human JAK2; 0.01 μM, TABLE 69): 36988 | Kinase Activity Luminescence Repeat2 (recombinant human JAK2; 0.01 μM, TABLE 69): 36554 | activity at 0.01 µM (recombinant human JAK2; 0.01 μM, TABLE 69, read-out: % Activity Repeat1): 16% | activity at 0.01 µM (recombinant human JAK2; 0.01 μM, TABLE 69, read-out: % Activity Repeat2): 18% | inhibition at 0.01 µM (recombinant human JAK2; 0.01 μM, TABLE 69, read-out: % Inhibition): 83% | Kinase Activity Luminescence Repeat1 (recombinant human JAK2; 10 nM, TABLE 72): 17529 | Kinase Activity Luminescence Repeat2 (recombinant human JAK2; 10 nM, TABLE 72): 16180 | activity at 0.01 µM (recombinant human JAK2; 10 nM, TABLE 72, read-out: % Activity Repeat1): 65% | activity at 0.01 µM (recombinant human JAK2; 10 nM, TABLE 72, read-out: % Activity Repeat2): 69% | inhibition at 0.01 µM (recombinant human JAK2; 10 nM, TABLE 74 summary, read-out: % Inhibition JAK2): 33% | Kinase Activity Luminescence Repeat1 (recombinant human JAK2; 0.1 μM, TABLE 69): 42700 | Kinase Activity Luminescence Repeat2 (recombinant human JAK2; 0.1 μM, TABLE 69): 40639 | inhibition at 0.1 µM (recombinant human JAK2; 0.1 μM, TABLE 69): 100% | activity at 0.1 µM (recombinant human JAK2; 0.1 μM, TABLE 69, read-out: % Activity Repeat1): 0% | activity at 0.1 µM (recombinant human JAK2; 0.1 μM, TABLE 69, read-out: % Activity Repeat2): 0% | Kinase Activity Luminescence Repeat1 (recombinant human JAK2; 100 nM, TABLE 72): 34660 | Kinase Activity Luminescence Repeat2 (recombinant human JAK2; 100 nM, TABLE 72): 34762 | inhibition at 0.001 µM (recombinant human JAK3): 19% | inhibition at 0.01 µM (recombinant human JAK3): 65% | inhibition at 0.1 µM (recombinant human JAK3): 100% | Kinase Activity Luminescence Repeat1 (recombinant human JAK3; 0.001 μM, TABLE 70): 23814 | Kinase Activity Luminescence Repeat2 (recombinant human JAK3; 0.001 μM, TABLE 70): 23348 | Kinase Activity Luminescence Repeat1 (recombinant human JAK3; 1 nM, TABLE 73): 21050 | Kinase Activity Luminescence Repeat2 (recombinant human JAK3; 1 nM, TABLE 73): 24827 | Kinase Activity Luminescence Repeat1 (recombinant human JAK3; 0.01 μM, TABLE 70): 32137 | Kinase Activity Luminescence Repeat2 (recombinant human JAK3; 0.01 μM, TABLE 70): 32417 | Kinase Activity Luminescence Repeat1 (recombinant human JAK3; 10 nM, TABLE 73): 32876 | Kinase Activity Luminescence Repeat2 (recombinant human JAK3; 10 nM, TABLE 73): 34538 | Kinase Activity Luminescence Repeat1 (recombinant human JAK3; 0.1 μM, TABLE 70): 39970 | Kinase Activity Luminescence Repeat2 (recombinant human JAK3; 0.1 μM, TABLE 70): 40121 | Kinase Activity Luminescence Repeat1 (recombinant human JAK3; 100 nM, TABLE 73): 37496 | Kinase Activity Luminescence Repeat2 (recombinant human JAK3; 100 nM, TABLE 73): 39233 | activity at 0.001 µM (recombinant human JAK3; read-out: % Activity Repeat1, 0.001 μM, TABLE 70): 80% | activity at 0.001 µM (recombinant human JAK3; read-out: % Activity Repeat1, 1 nM, TABLE 73): 84% | activity at 0.01 µM (recombinant human JAK3; read-out: % Activity Repeat1, 10 nM, TABLE 73): 27% | activity at 0.1 µM (recombinant human JAK3; read-out: % Activity Repeat1, 0.1 μM, TABLE 70): 0% | activity at 0.1 µM (recombinant human JAK3; read-out: % Activity Repeat1, 100 nM, TABLE 73): 5% | activity at 0.001 µM (recombinant human JAK3; read-out: % Activity Repeat2, 0.001 μM, TABLE 70): 82% | activity at 0.001 µM (recombinant human JAK3; read-out: % Activity Repeat2, 1 nM, TABLE 73): 66% | activity at 0.01 µM (recombinant human JAK3; read-out: % Activity Repeat2, 0.01 μM, TABLE 70): 35% | activity at 0.01 µM (recombinant human JAK3; read-out: % Activity Repeat2, 10 nM, TABLE 73): 20% | activity at 0.1 µM (recombinant human JAK3; read-out: % Activity Repeat2, 0.1 μM, TABLE 70): 0% | activity at 0.1 µM (recombinant human JAK3; read-out: % Activity Repeat2, 100 nM, TABLE 73): 0% | inhibition at 0.001 µM (recombinant human JAK3; read-out: % Inhibition JAK3): 25% | inhibition at 0.01 µM (recombinant human JAK3; read-out: % Inhibition JAK3): 77% | inhibition at 0.1 µM (recombinant human JAK3; read-out: % Inhibition JAK3): 97%
